One assay addresses T1, human CCL2-647 (Homo sapiens, UniProt P13500).
T1 construct: purchased Almac (UK)
Nature of the assay: Fluorescent chemokine binding to THP-1 cells (flow cytometry). It counts as cell-based. The conditions noted are these: CCL2-647 1.2 nM, read-out: IC50 against CCL2-647 induced THP-1 cellular fluorescence. How it is done:
Data are shown as mean of two technical replicates. […] Curves were fitted with 4 parameters to estimate IC50.
Fluorescent chemokine (conjugated to AlexaFluor-647) binding to THP-1 cells results in an increase in the cellular fluorescence intensity, which is quantitatively measured using flow cytometry.
Fluorescent Chemokine/Receptor Blocking Assay CCL8-647 (2.5 nM, final) or […] (1.2 nM, final) was incubated for 30 minutes with varying doses of peptide (0-100 μM, final concentration) in 50 μL assay buffer (RPMI-1640+L-glutamine (4 mM)+10% heat treated fetal bovine serum+0.2% DMSO) at 37° C. This mixture was then added to 50,000 THP-1 cells in a 96-well v-bottomed plated to give a final volume of 100 μL, and everything incubated together for a further 30 minutes at 37° C. Following this time, the plate was centrifuged, the supernatant flicked off, and the cells resuspended in 150 μL ice cold PBSA. This was repeated twice more and the cells were finally resuspended in 150 μL ice cold PBSA. The median fluorescence intensity of 10,000 cells on the RL-1 channel was determined using an ATTUNE flow cytometer and plotted as function of peptide concentration and the data fitted to an inhibitor response curve with 4 parameters using Graph Pad prism 6. Experiments were performed as two technical and three biological replicates.
(Flow cytometry measures light scatter and fluorescence of single cells or particles in a stream.)

In a further assay the target is CCL7_HUMAN (Homo sapiens, UniProt P80098). Nature of the assay: Neutralisation of chemokine induced THP-1 cell migration. It counts as cell-based. To be noted: single concentration of peptide; EC80 CCL7 7.2 nM. Here is the method: (§1) Table 1. Tick CKBPs described in PCT/GB2017/050563 and [17]. Tick peptide sequences isolated in yeast surface display fluorescent-activated cell sorting (FACS) screens using a labelled chemokine. Identity with Evasin-1, 4 or 3 was calculated using BLAST. Abbreviations: IXORI—Ixodes ricinus, RHISA—Rhipicephalus sanguineus, AMBMA—Amblyomma maculatum, AMBPA—Amblyomma parvum, AMBTR—Amblyomma triste, AMBAM—Amblyomma americanum, AMBCA—Amblyomma cajennense, RHIPU—Rhipicephalus pulchellus. Table 2A-C. Binding characteristics of tick CKBPs previously disclosed (PCT/GB2017/050563 and [17]). All members of the human chemokine family[164] are listed in column 1. Binding to human chemokines was determined for 14 tick CKBPs using biolayer interferometry (BLI) with calculated Kd shown as Molar (Moles/Litre). Binding data for 17 other novel tick CKBPs was assayed using yeast surface display[17,166],with positive binding results shown as “YES”. For biolayer interferometry, His-tagged purified tick CKBP was bound to a Ni-NINTA sensor on an OctetRed® 384 system, and then binding to each chemokine listed (with the exception of CCL25, CCL26, CXCL16, CXCL17, CXCL4L1, XCL2) was assayed in a cross-binding screen at a chemokine concentration of 300 nM as described. For those chemokines showing binding to a tick CKBP in the cross-binding screen, binding assays were repeated using different doses of chemokine. Association, equilibrium and dissociation data were analysed using Octet software to create corresponding fitted curves, and used to calculate Kd. For yeast surface display, (YSD) background fluorescence was controlled for by using either an empty vector or by omitting the chemokine (i.e. using streptavidin-Alexa647 alone). An arbitrary threshold of >3 fold over background mean fluorescence intensity was chosen to describe confirmed re-tests. Where binding was detected data are indicated as “YES”. […] For yeast surface display data, empty cells represent chemokines that were not tested. Binding data published in relation to previously described tick CKBPs (Evasins-1, 4 and 3) is also shown for comparison in each of FIGS. 2A-C, with the relevant data obtained from publications: [20-22,32]. Table 3: Neutralisation of human chemokines by tick CKBPs previously disclosed (PCT/GB2017/050563 and [17]). Neutralising activity was determined using a quantitative THP1 cell migration assay in a 96-well Boyden chamber with chemokine in the bottom chamber as described. Cells migrating through to the bottom chamber at 4 hours were counted using flow cytometry in a 96 well plate format. IC50 for neutralisation was determined at the chemokine EC80 dose as determined using a range of tick CKBP concentrations. Data was analysed using GraphPad Prism to determine IC50, which is shown as Molar (Moles/Litre). Empty cells represent experiments not done. Table 4—Other previously described tick CKBPs. Tick CKBPs that were also described in PCT/GB2017/050563 and Singh et al. are indicated in “Notes”. Table 5.—Novel tick CKBPs of the invention. Table 6. […] The peptide sequence prefix indicates the identity, and suffix indicate the tick species as follows: AMBCA, Amblyomma cajennense and IXORI, Ixodes ricinus. […] Individual yeast clones recovered from the library were re-tested using a FACS (fluorescence activated cell sorting), experiment. The binding of the peptide to the chemokine was assayed by measuring the percent (%), of yeast cells expressing the given peptide that exceeded a background threshold set by measuring the fluorescence of the yeast library pool treated with streptavidin-[…] alone. When more than one independent yeast clone was isolated for a given peptide-chemokine combination, the mean percent shift was calculated and reported in column 3.
Chain of CCL7_HUMAN (P80098 24-99): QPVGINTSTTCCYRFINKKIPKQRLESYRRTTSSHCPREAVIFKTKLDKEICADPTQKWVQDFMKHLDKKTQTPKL

The target of another assay is T2, CCL8_HUMAN (Homo sapiens, UniProt P80075).
T2 sequence (P80075 24-99): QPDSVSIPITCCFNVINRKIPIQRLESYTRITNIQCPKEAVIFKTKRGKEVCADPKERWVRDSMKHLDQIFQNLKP
The description is as above. It counts as cell-based. To be noted: single concentration of peptide; EC80 CCL8 5.8 nM. Here is the method: as §1

A further assay deals with CCL2_HUMAN (Homo sapiens, UniProt P13500). The assay is described as above. The conditions noted are these: single concentration of peptide; EC80 CCL2 1.2 nM. It counts as cell-based. How it is done:
as §1

Another assay concerns the target T3, CCL3_HUMAN (Homo sapiens, UniProt P10147).
T3 sequence (P10147 24-92): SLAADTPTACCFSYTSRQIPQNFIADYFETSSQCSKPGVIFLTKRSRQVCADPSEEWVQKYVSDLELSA
The assay is described as above. To be noted: single concentration of peptide; EC80 CCL3 3.5 nM. It counts as cell-based. How it is done: as §1

A further assay concerns the target T4, CXCL9_HUMAN (Homo sapiens, UniProt Q07325).
T4 sequence (Q07325 23-125): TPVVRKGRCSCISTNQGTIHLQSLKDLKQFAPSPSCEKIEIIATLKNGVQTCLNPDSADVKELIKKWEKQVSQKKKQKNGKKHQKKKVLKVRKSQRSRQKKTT
Nature of the assay: Yeast surface display (YSD) FACS binding. To be noted: FACS re-test; mean percent shift where several clones. How it is done:
Table 1. Tick CKBPs described in PCT/GB2017/050563 and [17]. Tick peptide sequences isolated in yeast surface display fluorescent-activated cell sorting (FACS) screens using a labelled chemokine. Identity with Evasin-1, 4 or 3 was calculated using BLAST. Abbreviations: IXORI—Ixodes ricinus, RHISA—Rhipicephalus sanguineus, AMBMA—Amblyomma maculatum, AMBPA—Amblyomma parvum, AMBTR—Amblyomma triste, AMBAM—Amblyomma americanum, AMBCA—Amblyomma cajennense, RHIPU—Rhipicephalus pulchellus. Table 2A-C. Binding characteristics of tick CKBPs previously disclosed (PCT/GB2017/050563 and [17]). All members of the human chemokine family[164] are listed in column 1. Binding to human chemokines was determined for 14 tick CKBPs using biolayer interferometry (BLI) with calculated Kd shown as Molar (Moles/Litre). […] Association, equilibrium and dissociation data were analysed using Octet software to create corresponding fitted curves, and used to calculate Kd. For yeast surface display, (YSD) background fluorescence was controlled for by using either an empty vector or by omitting the chemokine (i.e. using streptavidin-Alexa647 alone). An arbitrary threshold of >3 fold over background mean fluorescence intensity was chosen to describe confirmed re-tests. Where binding was detected data are indicated as “YES”. […] Data was analysed using GraphPad Prism to determine IC50, which is shown as Molar (Moles/Litre). […]

Positions of bridges follow the written chain, without caps; N, C: chain ends. Residues, ends and D or L forms follow the SMILES beside them.

We go through two compounds from US20200247855A1, “THERAPY AND DIAGNOSTICS” (OXFORD UNIVERSITY INNOVATION LIMITED, priority 2017, published 2020).

T1 sequence (P13500 24-99): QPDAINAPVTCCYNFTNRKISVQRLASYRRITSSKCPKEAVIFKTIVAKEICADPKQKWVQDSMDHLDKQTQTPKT
Chain of CCL2_HUMAN (P13500 24-99): as above

Consider `CC(C)[C@@H]1NC(=O)[C@@H]2CCCN2C(=O)[C@H](CCCCN)NC(=O)[C@H](Cc2ccccc2)NC(=O)[C@H](Cc2ccccc2)NC(=O)[C@H](CC(=O)O)NC(=O)[C@H](CCC(=O)O)NC(=O)[C@H](Cc2ccc(O)cc2)NC(=O)[C@H](CC(=O)O)NC(=O)[C@H](CCC(=O)O)NC(=O)[C@H](CC(=O)O)NC(=O)[C@H](CCC(=O)O)NC(=O)[C@H](Cc2ccc(O)cc2)NC(=O)CSC[C@@H](C(=O)N[C@@H](Cc2ccc(O)cc2)C(=O)N[C@@H](Cc2ccccc2)C(N)=O)NC(=O)[C@H]([C@@H](C)O)NC1=O` [BK1.2] ({CH2CO}-YEDEDYEDFFKPVTCYF-NH2; thioether N-15), for which the IC50 (as a rule, the concentration that gives 50% inhibition) at human CCL2-647 amounted to 6.3 µM. The “Effect on CCL7-induced THP-1 cell migration” value on CCL7_HUMAN was “stronger effect”. The “Effect on CCL8-induced THP-1 cell migration” value at CCL8_HUMAN was “reduced CCL8 induced cell migration to baseline levels”. At CCL2_HUMAN, the “Effect on CCL2-induced THP-1 cell migration” value is “stronger effect”. Further, the “Effect on CCL3-induced THP-1 cell migration” value on CCL3_HUMAN is recorded as “significantly reduced”.

As to “P1124_IXORI: novel CXC-binding tick CKBP, Ixodes ricinus (DSKGTSDSQDSTKSIKVDFCETNCTKTDGGWTGCTGDCICVSVGDSIEGRCMDFG; listed as Ixodes ricinus)”, the “Chemokines bound in yeast surface display and % cells over threshold fluorescence: CXCL9_HUMAN” value with CXCL9_HUMAN was “CXCL9_HUMAN 31%”.
